Earlier results in patent EP2637636B1, “LEAVE-ON NONSOLID SKIN CONDITIONING COMPOSITIONS CONTAINING 12-HYDROXYSTEARIC ACID” (Unilever PLC, priority 2010, dated 2012).

conditions: surfactants used in the Examples

HLB	Compound
> 7	CCCCCCCCCCCCNC(=O)[C@H](O)[C@@H](O)[C@H](O[C@@H]1O[C@H](CO)[C@H](O)[C@H](O)[C@H]1O)[C@H](O)CO [C12 lactobionamide]
> 7	Hexadecyl n-methyl glucamide
4.7	Sorbitan Monostearate [Span 60]

Compound	HLB
Glyceryl hydroxystearate	about 5
